Values of other authors, collected in patent publication US8906604B2, “Store-operated calcium cellular assay” (National Center for Biological Sciences, priority 2009, dated 2014).
pKd: −log10 of the molar value.

Details: in Drosophila S2 cells; published value (Hardie et al. 1996); read-out: Kd value for Indo-1

In the case of `Cc1ccc(N(CC(=O)O)CC(=O)O)c(OCCOc2cc(-c3cc4ccc(C(=O)O)cc4[nH]3)ccc2N(CC(=O)O)CC(=O)O)c1` [Indo-1], the pKd is given as 5.94.
